pIC50, pKi: −log10 of the molar value. Read-outs that look alike come from different tables or passages of the source.
How the values were obtained:
MCL-1 = MCL-1 (Homo sapiens (Human), UniProt Q07820); experiment: Cell free Mcl-1:Bim affinity assay (fluorescence polarization competition); assay type: binding; details: 15 nM MCL-1, 5 nM FITC-Bim, 1 hour at room temperature, read-out: BIM_Ki
Procedure, shortened: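 Compounds competed with FITC-labelled Bim peptide (5 nM) for MCL-1 (15 nM) in HEPES/NaCl buffer with 1% DMSO, 1 h at room temperature. Fluorescence polarization (535 nm emission) gave % inhibition versus DMSO and positive controls; IC50 from 10-point curves, converted to Ki by the Nikolovska-Coleska equation.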

H929 cells = experiment: Cell viability assay (H929 10 FBS); assay type: cell-based; details: read-out: H929_10FBS IC50
Procedure, shortened: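 H929 cells, 4000/well, in RPMI 1640 with 10% FBS, sodium pyruvate, HEPES and glucose were exposed to compound 24 h at 37 °C. Viability read as luminescence after 30-60 min at RT with CellTiter-Glo or ATPlite 1 Step.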

[1] = Homo sapiens, NCI-H929, 24 hours

Chain of MCL-1 (Q07820 whole entry): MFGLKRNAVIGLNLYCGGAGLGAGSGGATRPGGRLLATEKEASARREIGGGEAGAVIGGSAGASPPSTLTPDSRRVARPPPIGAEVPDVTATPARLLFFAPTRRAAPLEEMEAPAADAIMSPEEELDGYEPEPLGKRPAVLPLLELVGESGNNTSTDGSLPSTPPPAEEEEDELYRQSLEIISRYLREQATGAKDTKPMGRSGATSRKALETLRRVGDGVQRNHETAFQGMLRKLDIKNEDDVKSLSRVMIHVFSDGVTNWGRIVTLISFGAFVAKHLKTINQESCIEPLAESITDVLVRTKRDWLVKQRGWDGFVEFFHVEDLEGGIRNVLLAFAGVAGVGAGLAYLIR

Compound | pKi (MCL-1; class symbols) | pIC50 (H929 cells; [1]) | pIC50 (H929 cells; 24 hours) | pKi (MCL-1; numeric values)
CN1CCN(C(=O)O[C@H]2/C=C/COC(C)(C)C(=O)NS(=O)(=O)c3ccc4c(c3)N(C[C@@H]3CC[C@H]32)C[C@@]2(CCCc3cc(Cl)ccc32)CO4)CC1 [Example 189, [(3R,6R,7S,8E,22S)-6′-Chloro-12,12-dimethyl-13,15,15-trioxo-spiro[11,20-dioxa-15-thia-1,14-diazatetracyclo[14.7.2.03,6.019,24]pentacosa-8,16,18,24-tetraene-22,1′-tetralin]-7-yl] 4-methylpiperazine-1-carboxylate] | > 9.00 | > 6.30 | – | –
CN(C)C1CN(C(=O)O[C@H]2/C=C/COC(C)(C)C(=O)NS(=O)(=O)c3ccc4c(c3)N(C[C@@H]3CC[C@H]32)C[C@@]2(CCCc3cc(Cl)ccc32)CO4)C1 [Example 52, [(3R,6R,7S,8E,22S)-6′-Chloro-12,12-dimethyl-13,15,15-trioxo-spiro[11,20-dioxa-15-thia-1,14-diazatetracyclo[14.7.2.03,6.019,24]pentacosa-8,16,18,24-tetraene-22,1′-tetralin]-7-yl] 3-(dimethylamino)azetidine-1-carboxylate] | > 9.00 | > 6.30 | – | –
CC1(C)OC/C=C/[C@H](OC(=O)NCC2CC2)[C@@H]2CC[C@H]2CN2C[C@@]3(CCCc4cc(Cl)ccc43)COc3ccc(cc32)S(=O)(=O)NC1=O [Example 183, [(3R,6R,7S,8E,22S)-6′-Chloro-12,12-dimethyl-13,15,15-trioxo-spiro[11,20-dioxa-15-thia-1,14-diazatetracyclo[14.7.2.03,6.019,24]pentacosa-8,16,18,24-tetraene-22,1′-tetralin]-7-yl] N-(cyclopropylmethyl)carbamate] | > 9.00 | > 6.30 | – | –
CC1(C)OC/C=C/[C@H](OCC(=O)NC2CCOCC2)[C@@H]2CC[C@H]2CN2C[C@@]3(CCCc4cc(Cl)ccc43)COc3ccc(cc32)S(=O)(=O)NC1=O [Example 282, 2-[(3R,6R,7S,8E,22S)-6′-Chloro-12,12-dimethyl-13,15,15-trioxo-spiro[11,20-dioxa-15λ6-thia-1,14-diazatetracyclo[14.7.2.03,6.019,24]pentacosa-8,16,18,24-tetraene-22,1′-tetralin]-7-yl]oxy-N-tetrahydropyran-4-yl-acetamide] | > 9.00 | > 6.30 | – | –
CN(C)C[C@@H]1CCCN1C(=O)O[C@H]1/C=C/COC(C)(C)C(=O)NS(=O)(=O)c2ccc3c(c2)N(C[C@@H]2CC[C@H]21)C[C@@]1(CCCc2cc(Cl)ccc21)CO3 [Example 168, [(3R,6R,7S,8E,22S)-6′-Chloro-12,12-dimethyl-13,15,15-trioxo-spiro[11,20-dioxa-15-thia-1,14-diazatetracyclo[14.7.2.03,6.019,24]pentacosa-8,16,18,24-tetraene-22,1′-tetralin]-7-yl] (2S)-2-[(dimethylamino)methyl]pyrrolidine-1-carboxylate] | > 9.00 | > 6.30 | – | –
COC1CN(C(=O)O[C@H]2/C=C/COC(C)(C)C(=O)NS(=O)(=O)c3ccc4c(c3)N(C[C@@H]3CC[C@H]32)C[C@@]2(CCCc3cc(Cl)ccc32)CO4)C1 [Example 56, [(3R,6R,7S,8E,22S)-6′-Chloro-12,12-dimethyl-13,15,15-trioxo-spiro[11,20-dioxa-15-thia-1,14-diazatetracyclo[14.7.2.03,6.019,24]pentacosa-8,16,18,24-tetraene-22,1′-tetralin]-7-yl] 3-methoxyazetidine-1-carboxylate] | > 9.00 | > 6.30 | – | –
CO[C@@H]1/C=C/CN[C@@H](C2CC2)C(=O)NS(=O)(=O)c2ccc3c(c2)N(C[C@@H]2CC[C@H]21)C[C@@]1(CCCc2cc(Cl)ccc21)CO3 [Example 126, (3R,6R,7R,8E,12S,22S)-6′-Chloro-7-methoxy-12-cyclopropyl-15,15-dioxo-spiro[20-oxa-15-thia-1,11,14-triazatetracyclo[14.7.2.03,6.019,24]pentacosa-8,16,18,24-tetraene-22,1′-tetralin]-13-one] | 7.00 to 9.00 | < 6.00 | – | –
CO[C@@H]1/C=C/C[C@H](C)[C@@H](CC(=O)N2CC(F)(F)C2)C(=O)NS(=O)(=O)c2ccc3c(c2)N(C[C@@H]2CC[C@H]21)C[C@@]1(CCCc2cc(Cl)ccc21)CO3 [Example 90, (3R,6R,7R,8E,11S,12R,22S)-6′-Chloro-12-[2-(3,3-difluoroazetidin-1-yl)-2-oxo-ethyl]-7-methoxy-11-methyl-15,15-dioxo-spiro[20-oxa-15-thia-1,14-diazatetracyclo[14.7.2.03,6.019,24]pentacosa-8,16,18,24-tetraene-22,1′-tetralin]-13-one] | > 9.00 | < 6.00 | – | –
CC1(C)OC/C=C/[C@H](O)[C@@H]2CC[C@H]2CN2C[C@@]3(CCOc4cc(Cl)ccc43)COc3ccc(cc32)S(=O)(=O)NC1=O [Example 246, (3R,6R,7S,8E,22S)-7′-chloro-7-hydroxy-12,12-dimethyl-15,15-dioxo-spiro[11,20-dioxa-15-thia-1,14-diazatetracyclo[14.7.2.03,6.019,24]pentacosa-8,16,18,24-tetraene-22,4′-chromane]-13-one] | 7.00 to 9.00 | < 6.00 | – | –
CNC(=O)O[C@H]1/C=C/COC2(CC2)C(=O)NS(=O)(=O)c2ccc3c(c2)N(C[C@@H]2CC[C@H]21)C[C@@]1(CCCc2cc(Cl)ccc21)CO3 [Example 227, [(3R,6R,7S,8E,22S)-6′-Chloro-12,12-ethylene-13,15,15-trioxo-spiro[11,20-dioxa-15-thia-1,14-diazatetracyclo[14.7.2.03,6.019,24]pentacosa-8,16,18,24-tetraene-22,1′-tetralin]-7-yl] N-methylcarbamate] | > 9.00 | > 6.30 | – | –
CN(C)CCNC(=O)O[C@H]1/C=C/COC(C)(C)C(=O)NS(=O)(=O)c2ccc3c(c2)N(C[C@@H]2CC[C@H]21)C[C@@]1(CCCc2cc(Cl)ccc21)CO3 [Example 155, [(3R,6R,7S,8E,22S)-6′-Chloro-12,12-dimethyl-13,15,15-trioxo-spiro[11,20-dioxa-15-thia-1,14-diazatetracyclo[14.7.2.03,6.019,24]pentacosa-8,16,18,24-tetraene-22,1′-tetralin]-7-yl] N-[2-(dimethylamino)ethyl]carbamate] | > 9.00 | > 6.30 | – | –
COC[C@@H]1CCCN1C(=O)O[C@H]1/C=C/COC(C)(C)C(=O)NS(=O)(=O)c2ccc3c(c2)N(C[C@@H]2CC[C@H]21)C[C@@]1(CCCc2cc(Cl)ccc21)CO3 [Example 160, [(3R,6R,7S,8E,22S)-6′-Chloro-12,12-dimethyl-13,15,15-trioxo-spiro[11,20-dioxa-15-thia-1,14-diazatetracyclo[14.7.2.03,6.019,24]pentacosa-8,16,18,24-tetraene-22,1′-tetralin]-7-yl] (2S)-2-(methoxymethyl)pyrrolidine-1-carboxylate] | > 9.00 | > 6.30 | – | –
CN[C@H]1CCN(C(=O)O[C@H]2/C=C/COC(C)(C)C(=O)NS(=O)(=O)c3ccc4c(c3)N(C[C@@H]3CC[C@H]32)C[C@@]2(CCCc3cc(Cl)ccc32)CO4)C1 [Example 163, [(3R,6R,7S,8E,22S)-6′-Chloro-12,12-dimethyl-13,15,15-trioxo-spiro[11,20-dioxa-15-thia-1,14-diazatetracyclo[14.7.2.03,6.019,24]pentacosa-8,16,18,24-tetraene-22,1′-tetralin]-7-yl] (3S)-3-(methylamino)pyrrolidine-1-carboxylate] | > 9.00 | > 6.30 | – | –
CO[C@@H]1/C=C/CN(S(C)(=O)=O)[C@H](C)C(=O)NS(=O)(=O)c2ccc3c(c2)N(C[C@@H]2CC[C@H]21)C[C@@]1(CCCc2cc(Cl)ccc21)CO3 [Example 135, (3R,6R,7R,8E,12R,22S)-6′-Chloro-7-methoxy-12-methyl-11-methylsulfonyl-15,15-dioxo-spiro[20-oxa-15-thia-1,11,14-triazatetracyclo[14.7.2.03,6.019,24]pentacosa-8,16,18,24-tetraene-22,1′-tetralin]-13-one] | 7.00 to 9.00 | < 6.00 | – | –
CO[C@@H]1/C=C\CCC2(CC2)C(=O)NS(=O)(=O)c2ccc3c(c2)N(C[C@@H]2CC[C@H]21)C[C@@]1(CCCc2cc(Cl)ccc21)CO3 [Example 70, (3R,6R,7R,8Z,22S)-6′-chloro-7-methoxy-12,12-ethylene-15,15-dioxo-spiro[20-oxa-15-thia-1,14-diazatetracyclo[14.7.2.03,6.019,24]pentacosa[8,16(25),17,19(24)]tetraene-22,1′-tetralin]-13-one] | 7.00 to 9.00 | – | < 6.00 | –
COCCN(C)C(=O)O[C@H]1/C=C/COC(C)(C)C(=O)NS(=O)(=O)c2ccc3c(c2)N(C[C@@H]2CC[C@H]21)C[C@@]1(CCCc2cc(Cl)ccc21)CO3 [Example 159, [(3R,6R,7S,8E,22S)-6′-Chloro-12,12-dimethyl-13,15,15-trioxo-spiro[11,20-dioxa-15-thia-1,14-diazatetracyclo[14.7.2.03,6.019,24]pentacosa-8,16,18,24-tetraene-22,1′-tetralin]-7-yl] N-(2-methoxyethyl)-N-methyl-carbamate] | > 9.00 | > 6.30 | – | –
CC(C)(C)OC(=O)N1CCC[C@H](OC(=O)NS(=O)(=O)c2ccc3c(c2)N(CC2CCC2)CC2(CCCc4cc(Cl)ccc42)CO3)C1 (stereo partly drawn) [Example 23, tert-Butyl (3S)-3-[[6′-chloro-5-(cyclobutylmethyl)spiro[2,4-dihydro-1,5-benzoxazepine-3,1′-tetralin]-7-yl]sulfonylcarbamoyloxy]piperidine-1-carboxylate] | – | < 6.00 | – | 7.13
